Test results published in a compilation of properties of binary mixtures (doi:10.1021/acs.iecr.0c01496).

Experiment: xn = mol fraction of the nth substance listed
Details: 101 kPa

CCCC[n+]1ccccc1.[Cl-] + CCCC[n+]1ccccc1.[Br-]
viscosity [mPa·s]
Details	398.1 K	403.1 K	408.1 K	413.1 K	418.1 K	423.1 K	428.1 K	433.1 K	438.1 K	443.1 K
x1 = 0.084	–	–	22.9	19.4	16.6	–	12.56	11.09	9.91	8.95
x1 = 0.169	33.5	27.8	23.3	19.7	–	14.63	12.79	11.3	–	9.1
x1 = 0.292	33.8	28.1	23.6	20	17.2	14.84	12.97	–	10.22	9.22
x1 = 0.389	–	28.5	–	20.3	–	15.07	13.18	11.63	10.37	9.35
x1 = 0.469	–	29.1	24.5	20.9	18	15.61	13.69	12.13	–	9.81
x1 = 0.611	–	–	25.1	21.4	18.4	16.03	14.06	12.46	11.15	10.07
x1 = 0.689	–	–	–	21.5	–	16.11	14.13	12.51	11.17	10.08
x1 = 0.785	–	–	–	21.9	18.9	16.43	–	12.76	11.41	10.29
x1 = 0.892	–	–	–	–	–	–	14.84	–	–	10.63

CC[n+]1ccccc1.[Cl-] + CCCC[n+]1ccccc1.[Cl-]
viscosity [mPa·s]
Details	x1 = 0.121	x1 = 0.198	x1 = 0.302	x1 = 0.388	x1 = 0.504	x1 = 0.597	x1 = 0.702	x1 = 0.795	x1 = 0.804
363.1 K	–	–	–	–	–	–	–	58.2	57.9
368.1 K	–	–	–	–	–	–	–	47.6	47.5
373.1 K	–	–	–	–	–	–	–	39.3	39.3
378.1 K	–	–	–	–	–	–	–	–	32.7
383.1 K	–	–	–	–	–	–	–	27.4	27.4
388.1 K	–	–	–	–	–	28.8	25.5	23.1	–
393.1 K	–	–	–	–	–	24.4	21.6	19.7	–
398.1 K	–	–	–	25.3	–	20.7	–	16.8	–
403.1 K	–	–	–	21.5	20.1	17.8	15.9	14.53	–
408.1 K	–	–	20.2	18.5	17.4	15.39	13.73	12.63	12.79
413.1 K	–	–	17.5	15.98	15.22	13.41	11.98	–	11.23
418.1 K	17.66	17.21	15.22	13.94	–	11.79	10.54	9.75	9.93
423.1 K	15.42	15.14	13.36	–	11.92	10.44	9.33	8.67	8.86
428.1 K	13.58	13.44	11.83	10.85	10.69	9.32	–	–	7.96
433.1 K	12.06	12.04	10.56	9.69	9.66	–	7.5	7	7.21
438.1 K	10.81	10.88	–	8.73	8.81	7.61	–	6.37	6.58
443.1 K	9.77	9.92	8.64	7.94	–	6.96	6.22	5.84	–

CCCC[n+]1ccccc1.[Cl-] + CC[n+]1ccccc1.[Br-]
viscosity [mPa·s]
Details	x2 = 0.104	x2 = 0.193	x2 = 0.313	x2 = 0.408	x2 = 0.484	x2 = 0.604	x2 = 0.64	x2 = 0.694	x2 = 0.797	x2 = 0.894
368.1 K	–	–	–	–	56.3	46	43.6	39.7	–	–
373.1 K	–	–	–	–	47.7	39.5	37.6	34.5	–	–
378.1 K	–	–	–	–	40.7	34.1	32.6	30.1	26	–
383.1 K	–	–	–	38.5	34.8	29.6	28.3	26.3	23	–
388.1 K	–	–	–	32.9	–	25.7	24.7	–	20.4	–
393.1 K	–	36	31.5	28.3	25.9	22.5	–	20.4	–	16.16
398.1 K	–	30.5	27	24.4	22.5	19.7	19	18.01	16.16	14.53
403.1 K	28.4	26.1	23.3	–	19.7	–	16.77	15.99	14.46	13.09
408.1 K	24.4	22.4	20.2	18.5	17.27	15.38	–	14.24	–	11.82
413.1 K	21	–	17.7	16.27	15.24	13.66	–	–	–	10.69
418.1 K	–	16.98	15.51	14.37	13.52	12.2	–	–	10.53	9.7
423.1 K	16.01	14.92	–	12.77	12.04	10.92	10.59	10.27	–	–
428.1 K	14.14	13.22	–	11.41	10.79	–	9.53	–	8.64	8.01
433.1 K	12.59	11.8	10.96	10.25	–	8.86	–	8.41	7.85	7.31
438.1 K	11.29	10.6	9.89	9.26	8.8	–	7.81	7.65	7.17	–
443.1 K	10.22	9.6	8.97	8.42	8.01	7.32	–	6.98	–	6.11

CC[n+]1ccccc1.[Cl-] + CC[n+]1ccccc1.[Br-]
viscosity [mPa·s]
Details	403.1 K	408.1 K	413.1 K	418.1 K	423.1 K	428.1 K	433.1 K	438.1 K	443.1 K
x1 = 0.105	12.65	11.56	10.55	9.63	8.8	8.05	7.39	6.82	6.34
x1 = 0.196	12.66	11.53	10.51	–	–	7.97	7.31	6.75	6.27
x1 = 0.303	12.66	–	10.45	9.5	–	–	7.22	6.66	6.2
x1 = 0.387	12.65	–	10.31	9.37	8.55	7.84	7.23	6.69	6.22
x1 = 0.503	12.66	11.37	–	9.28	8.45	7.74	–	6.61	6.15
x1 = 0.613	12.67	11.33	10.19	–	–	7.65	7.05	–	6.08
x1 = 0.688	–	11.3	10.15	9.17	8.33	–	7	6.47	6.02
x1 = 0.803	12.66	11.26	10.08	9.08	8.24	7.52	6.9	6.38	5.94
x1 = 0.885	12.65	11.22	10.02	9.02	–	7.44	6.83	6.32	5.88
